Marks after values point to notes of the source that are not given here. Positions of bridges follow the written chain, without caps; N, C: chain ends. Non-standard residues stand in square brackets, D forms with d. Residues, ends and D or L forms follow the SMILES beside them. *: point of attachment. GABA = NCCCC(=O)O; NHOH = ON*
Tests used:
Assay in all cases: KDAC inhibition assay, Caliper EZ Reader II
Type in all cases: biochemical
[1] = target: T1, recombinant human KDAC8 (Homo sapiens, UniProt Q9BY41); conditions: for KDAC Inhibition Activity KDAC8 (% inhibition): % inhibition at 30 μM
T1 construct: purchased BPS Bioscience
T1 sequence (Q9BY41 1-377): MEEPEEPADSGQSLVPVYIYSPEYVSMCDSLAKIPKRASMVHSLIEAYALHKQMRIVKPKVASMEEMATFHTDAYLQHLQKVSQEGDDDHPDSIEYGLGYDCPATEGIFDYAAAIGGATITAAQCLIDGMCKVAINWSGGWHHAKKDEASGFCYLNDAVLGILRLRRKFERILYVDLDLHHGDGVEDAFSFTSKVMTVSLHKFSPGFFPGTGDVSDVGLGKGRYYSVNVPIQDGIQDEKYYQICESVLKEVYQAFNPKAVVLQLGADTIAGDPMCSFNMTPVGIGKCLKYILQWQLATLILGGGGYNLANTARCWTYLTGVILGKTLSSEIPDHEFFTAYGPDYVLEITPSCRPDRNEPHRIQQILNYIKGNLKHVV

[2] = target: T2, recombinant human KDAC3 (Homo sapiens, UniProt O15379); conditions: for KDAC Inhibition Activity KDAC3 (% inhibition): % inhibition at 30 μM; for IC50: 10-point dose curve from 30 μM, read-out: KDAC Inhibition Activity (IC50) KDAC3
T2 construct: purchased BPS Bioscience
T2 sequence (O15379 whole entry): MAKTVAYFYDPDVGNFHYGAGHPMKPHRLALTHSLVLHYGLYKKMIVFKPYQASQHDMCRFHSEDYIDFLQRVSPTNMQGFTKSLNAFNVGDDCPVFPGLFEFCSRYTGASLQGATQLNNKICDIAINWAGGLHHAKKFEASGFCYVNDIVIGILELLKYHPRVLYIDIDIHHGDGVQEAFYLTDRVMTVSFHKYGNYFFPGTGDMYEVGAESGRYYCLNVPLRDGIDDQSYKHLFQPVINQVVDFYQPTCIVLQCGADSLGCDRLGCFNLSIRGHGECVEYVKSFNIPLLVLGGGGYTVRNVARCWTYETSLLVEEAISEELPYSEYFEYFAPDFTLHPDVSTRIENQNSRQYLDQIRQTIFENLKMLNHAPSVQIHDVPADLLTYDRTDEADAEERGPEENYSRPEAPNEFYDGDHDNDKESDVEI
T2 sequence (Q9Y618 395-489 partner limits assumed): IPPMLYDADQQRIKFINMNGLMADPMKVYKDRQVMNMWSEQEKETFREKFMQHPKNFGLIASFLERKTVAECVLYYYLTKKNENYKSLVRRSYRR

[3] = target: T3, recombinant human KDAC6 (Homo sapiens, UniProt Q9UBN7); conditions: for KDAC Inhibition Activity KDAC6 (% inhibition): % inhibition at 30 μM
T3 construct: purchased BPS Bioscience
T3 sequence (Q9UBN7 1-1215): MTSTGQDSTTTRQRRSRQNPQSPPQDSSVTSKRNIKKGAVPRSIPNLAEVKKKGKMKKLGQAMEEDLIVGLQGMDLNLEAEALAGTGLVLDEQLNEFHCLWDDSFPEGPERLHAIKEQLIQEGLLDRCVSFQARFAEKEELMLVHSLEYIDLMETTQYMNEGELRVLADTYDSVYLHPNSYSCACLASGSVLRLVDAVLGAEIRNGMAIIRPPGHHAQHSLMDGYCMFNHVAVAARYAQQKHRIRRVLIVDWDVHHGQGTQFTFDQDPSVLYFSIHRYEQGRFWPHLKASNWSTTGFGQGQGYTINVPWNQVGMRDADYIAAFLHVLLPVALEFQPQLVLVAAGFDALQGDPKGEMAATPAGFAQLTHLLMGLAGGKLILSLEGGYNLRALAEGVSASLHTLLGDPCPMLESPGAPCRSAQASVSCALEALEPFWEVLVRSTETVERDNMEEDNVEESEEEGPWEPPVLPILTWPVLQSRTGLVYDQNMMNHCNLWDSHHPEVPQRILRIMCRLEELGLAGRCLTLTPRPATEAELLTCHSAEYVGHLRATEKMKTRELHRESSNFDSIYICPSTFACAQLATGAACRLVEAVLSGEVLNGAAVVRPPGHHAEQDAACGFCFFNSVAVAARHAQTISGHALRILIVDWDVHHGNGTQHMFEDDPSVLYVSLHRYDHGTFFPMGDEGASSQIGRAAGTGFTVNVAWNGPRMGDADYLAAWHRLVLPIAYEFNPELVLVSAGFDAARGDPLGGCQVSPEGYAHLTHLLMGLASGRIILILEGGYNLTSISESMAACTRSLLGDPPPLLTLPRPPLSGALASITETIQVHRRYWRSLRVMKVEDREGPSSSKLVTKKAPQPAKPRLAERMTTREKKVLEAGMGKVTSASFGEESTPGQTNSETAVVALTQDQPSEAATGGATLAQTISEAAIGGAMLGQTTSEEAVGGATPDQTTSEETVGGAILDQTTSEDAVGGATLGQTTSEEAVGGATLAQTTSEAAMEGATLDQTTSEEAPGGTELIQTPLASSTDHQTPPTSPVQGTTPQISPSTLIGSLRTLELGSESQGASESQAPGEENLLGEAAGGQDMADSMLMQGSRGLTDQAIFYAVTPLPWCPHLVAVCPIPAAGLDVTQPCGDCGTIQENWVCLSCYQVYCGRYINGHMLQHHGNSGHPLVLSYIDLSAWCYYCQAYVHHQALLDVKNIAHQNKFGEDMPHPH

[4] = target: T4, recombinant human KDAC1 (Homo sapiens, UniProt Q13547); conditions: for KDAC Inhibition Activity KDAC1 (% inhibition): % inhibition at 30 μM; for IC50: 10-point dose curve from 30 μM
T4 construct: purchased BPS Bioscience
T4 sequence (Q13547 whole entry): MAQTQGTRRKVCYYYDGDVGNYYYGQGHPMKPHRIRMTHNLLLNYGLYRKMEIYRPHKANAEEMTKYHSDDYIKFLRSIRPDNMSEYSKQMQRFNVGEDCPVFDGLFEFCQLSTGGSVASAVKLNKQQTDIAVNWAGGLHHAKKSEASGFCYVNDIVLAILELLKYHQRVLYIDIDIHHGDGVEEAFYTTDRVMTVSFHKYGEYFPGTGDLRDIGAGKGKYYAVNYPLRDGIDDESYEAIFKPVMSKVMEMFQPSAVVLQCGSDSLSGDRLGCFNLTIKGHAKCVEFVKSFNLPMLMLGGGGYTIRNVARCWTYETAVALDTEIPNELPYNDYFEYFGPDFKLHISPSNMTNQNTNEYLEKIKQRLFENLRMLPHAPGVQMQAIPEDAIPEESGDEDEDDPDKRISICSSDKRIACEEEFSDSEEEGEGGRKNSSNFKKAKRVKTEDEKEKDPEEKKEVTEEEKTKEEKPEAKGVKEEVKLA

KDAC Inhibition Activity KDAC8 (% inhibition) [1] | KDAC Inhibition Activity KDAC3 (% inhibition) [2] | KDAC Inhibition Activity KDAC6 (% inhibition) [3] | KDAC Inhibition Activity KDAC1 (% inhibition) [4] | Compound | further results
3% | Not active | Not active | Not active | Cyclo-Asp(^DPro-Pro-Val)-NHCH2CH2CH2COOH [Compound 13a] | –
Not active | 7% | Not active | Not active | Cyclo-Asp(Pro-^DPro-Val)-NHCH2CH2CH2OH [Compound 22a] | –
Not active | 15% | 48% | 9.5% | Cyclo-^DAsp(Pro-^DPro-Val)-NHCH2CH2CH2SH [Compound 18b] | –
25% | 9% | 1% | 1% | Cyclo-^DAsp(^DPro-Pro-Val)-NHCH2CH2CH2OH [Compound 10b] | –
– | 10% | 21% | – | [Cyclo-Asp(Pro-^DPro-Val)-NHCH2CH2CH2S]2 [Compound 38a] | –
– | – | – | – | CC(C)[C@@H]1NC(=O)[C@H]2CCCN2C(=O)[C@@H]2CCCN2C(=O)C[C@@H](C(=O)NCCCC(=O)NO)NC1=O [Compound 25a, Cyclo-Asp(Pro-^DPro-Val)-NHCH2CH2CH2CONHOH] (P[dP]VD[GABA]-{NHOH}; lactam N-4) | inhibition at 30 µM [1]: 34%; IC50 ([1]; 10-point dose curve from 30 μM): > 30 µM; inhibition at 30 µM [2]: 45%; IC50 [2]: > 30 µM; inhibition at 30 µM [3]: 80%; inhibition at 30 µM [4]: 25%; IC50 [4]: > 30 µM
– | – | – | – | CC(C)[C@@H]1NC(=O)[C@@H]2CCCN2C(=O)[C@H]2CCCN2C(=O)C[C@H](C(=O)O)NC1=O [Compound 3b, Cyclo-^DAsp(^DPro-Pro-Val)-OH] ([dP]PV[dD]-OH; lactam N-4) | inhibition at 30 µM [2]: 3%; inhibition at 30 µM [4]: 2.5%
8% | Not active | 12% | Not active | Cyclo-^DAsp(Pro-^DPro-Val)-NHCH2CH2CH2S(═O)2CH3 [Compound 21b] | –
36% | 8% | Not active | 4% | Cyclo-Asp(Pro-^DPro-Val)-NHCH2CH2CH2COOH [Compound 24a] | –
2% | – | – | – | [Cyclo-Asp(Pro-^DPro-Val)-NHCH2CH2S]2 [Compound 36a] | –
2% | – | 4% | – | [Cyclo-DAsp(Pro-DPro-Val)-NHCH2CH2S]2 [Compound 36b] | –
– | 2% | – | – | [Cyclo-Asp(^DPro-Pro-Val)-NHCH2CH2S]2 [Compound 35a] | –
30% | Not active | Not active | Not active | Cyclo-Asp(^DPro-Pro-Val)-NHCH2CH2CH2S(═O)CH3 [Compound 8a] | –
3% | 19% | 40% | – | [Cyclo-^DAsp(Pro-^DPro-Val)-NHCH2CH2CH2S]2 [Compound 38b] | –
– | 53% | 8% | 1% | [Cyclo-^DAsp(^DPro-Pro-Val)-NHCH2CH2CH2S]2 [Compound 37b] | –
Not active | Not active | Not active | 2.5% | Cyclo-^DAsp(^DPro-Pro-Val)-NHCH2CH2CH2COOH [Compound 13b] | –
– | 1% | 10% | 1.5% | Cyclo-^DAsp(Pro-^DPro-Val)-OBn [Compound 2b] | –
9% | – | 6% | – | [Cyclo-^DAsp(^DPro-Pro-Val)-NHCH2CH2S]2 [Compound 35b] | –
14% | – | – | – | Cyclo-Asp(Pro-^DPro-Val)-OBn [Compound 2a] | –
– | 24% | – | – | Cyclo-Asp(Pro-^DPro-Val)-OH [Compound 4a] | –
– | – | – | – | Nc1ccccc1NC(=O)c1ccc(-c2cn(CCc3ccsc3)nn2)cc1 [Compound T247, N-(2-Aminophenyl)-4-[1-(2-thiophen-3-ylethyl)-1H-[1,2,3]triazol-4-yl]benzamide, reference compound] | IC50 [2]: 3.94 µM; IC50 [4]: 1.11 µM
6% | – | 9% | – | [Cyclo-Asp(^DPro-Pro-Val)-NHCH2CH2CH2S]2 [Compound 37a] | –
– | – | – | – | CC(C)[C@@H]1NC(=O)[C@@H]2CCCN2C(=O)[C@H]2CCCN2C(=O)C[C@@H](C(=O)O)NC1=O [Compound 3a, Cyclo-Asp(^DPro-Pro-Val)-OH] ([dP]PVD-OH; lactam N-4) | inhibition at 30 µM [2]: 1%
9% | – | 6% | – | Cyclo-Asp(^DPro-Pro-Val)-OBn [Compound 1a] | –
4% | 5% | 10% | – | Cyclo-DAsp(Pro-DPro-Val)-OH [Compound 4b] | –

Compound | KDAC Inhibition Activity KDAC8 (% inhibition) [1] | KDAC Inhibition Activity KDAC3 (% inhibition) [2] | KDAC Inhibition Activity KDAC6 (% inhibition) [3] | KDAC Inhibition Activity KDAC1 (% inhibition) [4] | further results
Cyclo-Asp(^DPro-Pro-Val)-NHCH2CH2CH2NH2 [Compound 16a] | 22%^a | 14%^a | 2%^a | Not active | –
Cyclo-Asp(Pro-^DPro-Val)-NHCH2CH2CH2COOMe [Compound 23a] | Not active | 7% | Not active | Not active | –
Cyclo-Asp(Pro-^DPro-Val)-NHCH2CH2CH2SCH3 [Compound 19a] | 25% | Not active | Not active | 2% | –
Cyclo-^DAsp(^DPro-Pro-Val)-NHCH2CH2CH2NH2 [Compound 16b] | 22%^a | 14%^a | 2%^a | 4.5% | –
Cyclo-^DAsp(^DPro-Pro-Val)-NHCH2CH2CH2SCH3 [Compound 7b] | 28% | Not active | Not active | 1.5% | –
Cyclo-^DAsp(Pro-^DPro-Val)-NHCH2CH2CH2SCH3 [Compound 19b] | 27% | Not active | Not active | 1% | –
Cyclo-^DAsp(^DPro-Pro-Val)-NHCH2CH2CH2COOMe [Compound 12b] | Not active | Not active | Not active | 5% | –

Source: patent US10421778B2, “Isoform-selective lysine deacetylase inhibitors” (WASHINGTON UNIVERSITY, priority 2015, dated 2019)
